Numbered stars: 1 amine (or outer) side, 2 acyl side, 3 side chain; on linkers, the order of the positions; unused ones are H or OH. Bridge positions count the residues as written; N and C are the ends. Square brackets hold non-standard residues; d marks the D form. Peptide text beside a SMILES is read from it. * marks the point of attachment. Pyrazinoyl(5-oxo-4H) = O=C(c1c[nH]c(=O)cn1)*; Isoorotoyl = O=C(c1c[nH]c(=O)[nH]c1=O)*; Nicotinoyl(6-OMe) = COc1ccc(C(=O)*)cn1; 2Thenoyl(5-Cl) = O=C(c1ccc(Cl)s1)*; Phenoxyacetyl = O=C(COc1ccccc1)*; Cysteamide = C(CS[*:3])N[*:1]; X3 = O=C(Cc1c[nH]c2ccccc12)*; 4Amb = NCc1ccc(C(=O)O)cc1; Isovaleryl = CC(C)CC(=O)*; Orn = NCCC[C@H](N)C(=O)O; Bz = O=C(c1ccccc1)*; βAla = NCCC(=O)O; Mpa = O=C(O)CCS

This experiment concerns the target T1, thrombin (Homo sapiens, UniProt P00734).
T1 construct: consists of two polypeptide chains of 36 (light chain) and 259 amino acid
The experiment in a line: Thrombin inhibition screen of crude macrocycle reactions (residual thrombin activity, fluorogenic substrate Z-Gly-Gly-Arg-AMC). The format is biochemical. The following applies: 10 µM macrocycle concentration; crude reactions, Library 1a-l; scaffold AA1-AA2-AA3 combined with 1-16 or '-'. On the procedure:
As a proof-of-concept, we screened the macrocycle library for inhibitors against thrombin, which is the central blood coagulation protease and an important therapeutic target. We conducted the screen for thrombin-inhibiting macrocycles in 384-well reaction plates. Briefly, each well contained a unique macrocycle (10 μM), 5 μL of thrombin (2 nM final conc.), and subsequently, 5 µL of a fluorogenic substrate to measure the residual thrombin activity and the extent of protease inhibition.
The assays were performed in 384-well plates using Tris buffer at pH 7.4 (100 mM Tris-Cl, 150 mM NaCl, 10 mM MgCl2, 1 mM CaCl2, 0.1% w/v BSA, 0.01% v/v Triton-X100, and 0.6% v/v DMSO) using thrombin at a final concentration of 2 nM and the fluorogenic substrate Z-Gly-Gly-Arg-AMC at a final concentration of 50 μM. Thrombin (5 μL, 6 nM) in the Tris-Cl buffer described above was added to each peptide using a BioTek MultiFlo microplate dispenser, and incubated for 10 min at room temperature. […] Data was collected and exported using the Tecan Infinite M200 Pro instrument software. […] For the negative controls (20 wells containing DMSO but no macrocycle), an average slope was calculated. The percent of thrombin inhibition was calculated by dividing the slopes and multiplying the results by 100.
As for `COc1ccc(C(=O)NCCCC[C@@H]2NC(=O)[C@@H]3CCCN3C(=O)CCSSCCNC(=O)[C@@H](C(C)C)NC2=O)cn1` [B1-D1-v/10] ([Mpa]PK(Nicotinoyl(6-OMe))[dV]-Cysteamide; disulfide 1-C), the “percent residual thrombin activity” value is recorded as 107.398%. Take `CC(C)[C@H]1NC(=O)[C@H](CCCCNC(=O)COc2ccccc2)NC(=O)[C@@H]2CCCN2C(=O)CCSSCCNC1=O` [B1-D1-v/13] ([Mpa]PK(Phenoxyacetyl)[dV]-Cysteamide; disulfide 1-C): the “percent residual thrombin activity” value turned out to be 123.844%. The figure for `CC(C)[C@H]1NC(=O)[C@H](CCCCN)NC(=O)[C@@H]2CCCN2C(=O)CCSSCCNC1=O` [B1-D1-v/-] ([Mpa]PK[dV]-Cysteamide; disulfide 1-C) is 114.269%; for `O=C(NCCCC[C@@H]1NC(=O)[C@@H]2CCCN2C(=O)CCSSCCNC(=O)[C@@H](Cc2ccc(O)cc2)NC1=O)c1ccccc1` [B1-D1-y/1] ([Mpa]PK(Bz)[dY]-Cysteamide; disulfide 1-C) it is 105.697%; for `O=C(NCCCC[C@@H]1NC(=O)[C@@H]2CCCN2C(=O)CCSSCCNC(=O)[C@@H](Cc2ccc(O)cc2)NC1=O)c1c[nH]c(=O)cn1` [B1-D1-y/9] ([Mpa]PK(Pyrazinoyl(5-oxo-4H))[dY]-Cysteamide; disulfide 1-C) it is 107.785%. The same measure for `COc1ccc(C(=O)NCCCC[C@@H]2NC(=O)[C@@H]3CCCN3C(=O)CCSSCCNC(=O)[C@@H](Cc3ccc(O)cc3)NC2=O)cn1` [B1-D1-y/10] ([Mpa]PK(Nicotinoyl(6-OMe))[dY]-Cysteamide; disulfide 1-C): 109.958%. The same measure for `NC(=O)CC[C@@H]1NC(=O)[C@@H]2CCCN2C(=O)CCSSCCNC(=O)[C@H](CCCNC(=O)c2c[nH]c(=O)[nH]c2=O)NC1=O` [B1-Q-D2/11] ([Mpa]PQ[Orn](Isoorotoyl)-Cysteamide; disulfide 1-C): 110.064%.

As to `NC(=O)CC[C@@H]1NC(=O)[C@@H]2CCCN2C(=O)CCSSCCNC(=O)[C@H](CCCNC(=O)Cc2c[nH]c3ccccc23)NC1=O` [B1-Q-D2/12] ([Mpa]PQ[Orn](X3)-Cysteamide; disulfide 1-C), the “percent residual thrombin activity” value was determined as 104.653%. In the case of `O=C(NCCC[C@@H]1NC(=O)[C@H](CO)NC(=O)[C@@H]2CCCN2C(=O)CCSSCCNC1=O)c1ccccc1` [B1-S-D2/1] ([Mpa]PS[Orn](Bz)-Cysteamide; disulfide 1-C), the “percent residual thrombin activity” value came to 109.462%.

On to `CC(C)CC(=O)NCCC[C@@H]1NC(=O)[C@H](CO)NC(=O)[C@@H]2CCCN2C(=O)CCSSCCNC1=O` [B1-S-D2/8] ([Mpa]PS[Orn](Isovaleryl)-Cysteamide; disulfide 1-C), for which the “percent residual thrombin activity” value was 106.543%.

In the case of `O=C(NCCC[C@@H]1NC(=O)[C@H](CO)NC(=O)[C@@H]2CCCN2C(=O)CCSSCCNC1=O)c1c[nH]c(=O)[nH]c1=O` [B1-S-D2/11] ([Mpa]PS[Orn](Isoorotoyl)-Cysteamide; disulfide 1-C), the “percent residual thrombin activity” value was found to be 112.339%. Take `O=C(NCCC[C@@H]1NC(=O)[C@H](CO)NC(=O)[C@@H]2CCCN2C(=O)CCSSCCNC1=O)c1ccc(Cl)s1` [B1-S-D2/14] ([Mpa]PS[Orn](2Thenoyl(5-Cl))-Cysteamide; disulfide 1-C): the “percent residual thrombin activity” value amounted to 96.3876%. As for `COc1ccc(C(=O)NCCCC[C@@H]2NC(=O)[C@@H](CO)NC(=O)[C@@H]3CCCN3C(=O)CCSSCCNC2=O)cn1` [B1-s-D1/10] ([Mpa]P[dS]K(Nicotinoyl(6-OMe))-Cysteamide; disulfide 1-C), the “percent residual thrombin activity” value stood at 110.704%.

Take `O=C(Cc1c[nH]c2ccccc12)NCCCC[C@@H]1NC(=O)[C@@H](CO)NC(=O)[C@@H]2CCCN2C(=O)CCSSCCNC1=O` [B1-s-D1/12] ([Mpa]P[dS]K(X3)-Cysteamide; disulfide 1-C): the “percent residual thrombin activity” value is 111.278%. For `NCCCC[C@@H]1NC(=O)[C@@H](CO)NC(=O)[C@@H]2CCCN2C(=O)CCSSCCNC1=O` [B1-s-D1/-] ([Mpa]P[dS]K-Cysteamide; disulfide 1-C), the “percent residual thrombin activity” value is 113.487%. The same measure for `O=C(NCCC[C@@H]1NC(=O)[C@H](CO)NC(=O)[C@@H]2CCCN2C(=O)CCSSCCNC1=O)c1ccccc1` [B1-s-D2/1] ([Mpa]PS[Orn](Bz)-Cysteamide; disulfide 1-C): 108.892%; for `CC(C)CC(=O)NCCC[C@@H]1NC(=O)[C@H](CO)NC(=O)[C@@H]2CCCN2C(=O)CCSSCCNC1=O` [B1-s-D2/8] ([Mpa]PS[Orn](Isovaleryl)-Cysteamide; disulfide 1-C): 104.868%. For the compound `O=C(NCCC[C@@H]1NC(=O)[C@H](CO)NC(=O)[C@@H]2CCCN2C(=O)CCSSCCNC1=O)c1c[nH]c(=O)[nH]c1=O` [B1-s-D2/11] ([Mpa]PS[Orn](Isoorotoyl)-Cysteamide; disulfide 1-C), the “percent residual thrombin activity” value is listed as 111.409%. With `O=C(NCCC[C@@H]1NC(=O)[C@H](CO)NC(=O)[C@@H]2CCCN2C(=O)CCSSCCNC1=O)c1ccc(Cl)s1` [B1-s-D2/14] ([Mpa]PS[Orn](2Thenoyl(5-Cl))-Cysteamide; disulfide 1-C), the “percent residual thrombin activity” value was found to be 95.3682%.

`COc1ccc(C(=O)NCCC[C@@H]2NC(=O)CCNC(=O)CCSSCCNC(=O)[C@H](Cc3ccc(O)cc3)NC2=O)cn1` [B2-D2-Y/10]: the “percent residual thrombin activity” value was determined as 105.275%. The same measure for `O=C1CCSSCCNC(=O)[C@H](Cc2ccc(O)cc2)NC(=O)[C@H](CCCNC(=O)COc2ccccc2)NC(=O)CCN1` [B2-D2-Y/13]: 109.064%; for `O=C1CCSSCCNC(=O)[C@H](Cc2ccc(O)cc2)NC(=O)[C@H](CCCNC(=O)c2ccco2)NC(=O)CCN1` [B2-D2-Y/16]: 116.586%; for `CC(C)C[C@@H]1NC(=O)CCNC(=O)CCSSCCNC(=O)[C@H](CCCNC(=O)c2ccccc2)NC1=O` [B2-L-D2/1] ([Mpa][βAla]L[Orn](Bz)-Cysteamide; disulfide 1-C): 106.68%. On to `CC(C)C[C@@H]1NC(=O)CCNC(=O)CCSSCCNC(=O)[C@H](CCCNC(=O)c2cnccn2)NC1=O` [B2-L-D2/2], for which the “percent residual thrombin activity” value turned out to be 112.903%. Consider `COc1ccc(C(=O)NCCC[C@@H]2NC(=O)[C@H](CC(C)C)NC(=O)CCNC(=O)CCSSCCNC2=O)cn1` [B2-L-D2/10], for which the “percent residual thrombin activity” value was 110.801%. Consider `CC(C)C[C@@H]1NC(=O)CCNC(=O)CCSSCCNC(=O)[C@H](CCCNC(=O)c2c[nH]c(=O)[nH]c2=O)NC1=O` [B2-L-D2/11], for which the “percent residual thrombin activity” value came out at 112.783%. The figure for `CC(C)C[C@@H]1NC(=O)CCNC(=O)CCSSCCNC(=O)[C@H](CCCNC(=O)c2ccco2)NC1=O` [B2-L-D2/16] is 111.509%; for `CC(C)C[C@@H]1NC(=O)CCNC(=O)CCSSCCNC(=O)[C@H](CCCN)NC1=O` [B2-L-D2/-] ([Mpa][βAla]L[Orn]-Cysteamide; disulfide 1-C) it is 113.32%.

With `O=C1CCSSCCNC(=O)[C@H](Cc2ccc(O)cc2)NC(=O)[C@H](CCCCNC(=O)c2c[nH]c(=O)cn2)NC(=O)c2ccc(cc2)CN1` [B3-D1-Y/9], the “percent residual thrombin activity” value was 101.633%. The figure for `COc1ccc(C(=O)NCCCC[C@@H]2NC(=O)c3ccc(cc3)CNC(=O)CCSSCCNC(=O)[C@H](Cc3ccc(O)cc3)NC2=O)cn1` [B3-D1-Y/10] is 99.2373%; for `COc1ccc(C(=O)NCCCC[C@@H]2NC(=O)[C@H](Cc3cnc[nH]3)NC(=O)c3ccc(cc3)CNC(=O)CCSSCCNC2=O)cn1` [B3-H-D1/10] it is 107.476%.

Turning to `O=C1CCSSCCNC(=O)[C@H](CCCCNC(=O)c2c[nH]c(=O)[nH]c2=O)NC(=O)[C@H](Cc2c[nH]cn2)NC(=O)c2ccc(cc2)CN1` [B3-H-D1/11], the “percent residual thrombin activity” value was found to be 112.941%. The same measure for `O=C1CCSSCCNC(=O)[C@H](CCCCNC(=O)c2ccc(Cl)s2)NC(=O)[C@H](Cc2c[nH]cn2)NC(=O)c2ccc(cc2)CN1` [B3-H-D1/14]: 102.666%.

Regarding `O=C1CCSSCCNC(=O)[C@H](CCCCNC(=O)c2ccco2)NC(=O)[C@H](Cc2cnc[nH]2)NC(=O)c2ccc(cc2)CN1` [B3-H-D1/16], the “percent residual thrombin activity” value is reported as 107.22%.

As for `CC(C)[C@@H]1NC(=O)c2ccc(cc2)CNC(=O)CCSSCCNC(=O)[C@H](CCCCNC(=O)c2c[nH]c(=O)cn2)NC1=O` [B3-V-D1/9], the “percent residual thrombin activity” value is 107.378%. Take `COc1ccc(C(=O)NCCCC[C@@H]2NC(=O)[C@H](C(C)C)NC(=O)c3ccc(cc3)CNC(=O)CCSSCCNC2=O)cn1` [B3-V-D1/10]: the “percent residual thrombin activity” value was 106.658%. The same measure for `O=C1CCSSCCNC(=O)[C@H](CCCCNC(=O)c2ccccc2)NC(=O)[C@@H](Cc2ccc(O)cc2)NC(=O)c2ccc(cc2)CN1` [B3-y-D1/1] ([Mpa][4Amb][dY]K(Bz)-Cysteamide; disulfide 1-C): 107.146%; for `Cc1nnsc1C(=O)NCCCC[C@@H]1NC(=O)[C@@H](Cc2ccc(O)cc2)NC(=O)c2ccc(cc2)CNC(=O)CCSSCCNC1=O` [B3-y-D1/15]: 112.065%; for `O=C(COc1ccccc1)NCCCC[C@@H]1NC(=O)[C@H]2CCCN(C2)C(=O)CCSSCCNC(=O)[C@H](CO)NC1=O` [B4-D1-S/13]: 103.519%.
